In assay [1] the target is T1, GST-tagged human ROCK1 catalytic domain 1-477 (Homo sapiens, UniProt Q13464).
T1 construct: human ROCK1 catalytic domain 1-477 from Carna Biosciences (cat #01-109); purchased Carna Biosciences 01-109; host or cells: baculovirus expression system
As to the kind of experiment: Isolated Enzyme Assay, ROCK1 (LANCE Ultra ULight-CREBtide FRET). Particulars: isolated enzyme assay; 30 μM highest concentration tested; read-out: Results from Isolated Enzyme Assay IC50 (μM) ROCK1. Type of assay: biochemical. In short, it runs like this:
(§1)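 Baculovirus-expressed constitutively active ROCK1 or ROCK2 (2 nM) incubated 90 min at room temperature with 50 nM ULight-CREBtide and compound (0.5% DMSO) in Tris pH 7.5, MgCl2, EGTA, Tween-20, DTT. EDTA-stopped; phospho-substrate detected by Eu-anti-phospho-CREB TR-FRET after 60 min; IC50 by non-linear regression.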
(In general: Time-resolved FRET reads energy transfer from a long-lived donor to a nearby acceptor.)

The target of assay [2] is T2, GST-tagged human ROCK2 catalytic domain 1-553 (Homo sapiens, UniProt O75116).
T2 construct: GST-tagged human ROCK2 catalytic domain 1-553 from Carna Biosciences (Cat #01-110); purchased Carna Biosciences 01-110; host or cells: baculovirus expression system
As to the kind of experiment: Isolated Enzyme Assay, ROCK2 (LANCE Ultra ULight-CREBtide FRET). Type of assay: biochemical. Particulars: isolated enzyme assay; 30 μM highest concentration tested; read-out: Results from Isolated Enzyme Assay IC50 (μM) ROCK2. In short, it runs like this: as §1

In a further assay the target is T3, ROCK1 (Homo sapiens, UniProt Q13464).
T3 construct: endogenous in cells; host or cells: HAP1 knockout cells
As to the kind of experiment: Cell-Based Assay, ROCK1 (HAP1 knockout cells, phospho-MYPT1 Thr853 ELISA). Particulars: read-out: Results from Cell-Based Assay IC50 (μM) ROCK1. As for the experimental part: (§2) Part II—Procedure for Determining ROCK Inhibition Ability of Test Compounds Using a Cell-Base Assay
(§3) The Cell-Based Assay for determining ROCK inhibition ability of test compounds utilized a genetically modified HAP1 cell line engineered to eliminate expression of either ROCK1 or ROCK2. In the procedure, HAP1 knockout cells are grown in Iscove's Modified Dulbecco's Medium that is additionally supplemented with 10% fetal bovine and 1x antibiotic-antimycotic mixture. Cells are plated in 96 well tissue culture plates at 1×10^5 cells/well (100 μL, of cells at 1×10^6/mL). Test compounds are solubilized in DMSO and diluted into the same media used to grow the cells. A 100 μL, aliquot of each compound dilution in media is added to each well containing the HAP1 cells and incubated at 37° C. for 30 minutes. Following compound incubation, the cells are pelleted by centrifugation at 1800 rpm for 5 minutes at 4° C. Media is removed from the cell pellet and the cells lysed and de-salted. An 80 μL, aliquot of each cell lysate is added to a single well of a 96-well high binding ELISA plate which has been pre-coated with a MYPT1 capture antibody and incubated at 4° C. overnight. The following day the ELISA plate is washed 4× with 0.05% Tween-20 in PBS. After washing, an anti-phospho-MYPT1 (Thr853) antibody is added and allowed to bind for 1 hour at room temperature. The wash step is repeated, and then an anti-rabbit HRP detection antibody is added and allowed to incubate at room temperature for 1 hour. The wash step is then repeated and 100 μL/well 1-Step™ Ultra TMB substrate is added to the ELISA plate and allowed to develop for approximately 5 minutes. The reaction is stopped by addition of H2SO4. Absorbance is read at 450 OD. Data is analyzed using GraphPad Prism software to calculate the 50% inhibitory concentration of test compound (IC50).
For orientation: In an ELISA, binding on a coated surface is turned into a signal by an enzyme label.

In the next assay the target is T4, ROCK2 (Homo sapiens, UniProt O75116).
T4 construct: endogenous in cells; host or cells: HAP1 knockout cells
As to the kind of experiment: Cell-Based Assay, ROCK2 (HAP1 knockout cells, phospho-MYPT1 Thr853 ELISA). Particulars: class symbols, read-out: Results from Cell-Based Assay IC50 (μM) ROCK2. As for the experimental part:
as §2, §3

16 compounds from patent publication US10556898B2, “Indazolyl-1,2,4-thiadiazolamines and related compounds for inhibition of Rho-associated protein kinase and the treatment of disease” (Lycera Corporation, priority 2016, dated 2020) can be followed below.

Like-named read-outs stand apart in the source and are kept apart here. A value given as a limit tells only on which side of the number the result lay.

As usually defined, the IC50 is the concentration that gives 50% inhibition.

T2 sequence (O75116 1-553): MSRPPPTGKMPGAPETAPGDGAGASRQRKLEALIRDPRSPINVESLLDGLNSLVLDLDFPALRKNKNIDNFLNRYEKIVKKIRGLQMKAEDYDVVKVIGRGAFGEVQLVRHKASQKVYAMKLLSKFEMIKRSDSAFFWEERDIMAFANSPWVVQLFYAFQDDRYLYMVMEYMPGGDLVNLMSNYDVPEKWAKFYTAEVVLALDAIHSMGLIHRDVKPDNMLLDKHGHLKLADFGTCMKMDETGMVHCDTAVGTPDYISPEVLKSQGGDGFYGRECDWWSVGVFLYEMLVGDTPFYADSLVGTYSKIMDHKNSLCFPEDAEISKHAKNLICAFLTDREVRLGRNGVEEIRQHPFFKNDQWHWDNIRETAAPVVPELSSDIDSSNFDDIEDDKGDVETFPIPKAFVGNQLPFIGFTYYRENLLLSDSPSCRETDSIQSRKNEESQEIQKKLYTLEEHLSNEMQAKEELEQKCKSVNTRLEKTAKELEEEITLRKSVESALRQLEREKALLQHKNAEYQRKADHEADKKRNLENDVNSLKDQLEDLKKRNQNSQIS
T3 sequence (Q13464 whole entry): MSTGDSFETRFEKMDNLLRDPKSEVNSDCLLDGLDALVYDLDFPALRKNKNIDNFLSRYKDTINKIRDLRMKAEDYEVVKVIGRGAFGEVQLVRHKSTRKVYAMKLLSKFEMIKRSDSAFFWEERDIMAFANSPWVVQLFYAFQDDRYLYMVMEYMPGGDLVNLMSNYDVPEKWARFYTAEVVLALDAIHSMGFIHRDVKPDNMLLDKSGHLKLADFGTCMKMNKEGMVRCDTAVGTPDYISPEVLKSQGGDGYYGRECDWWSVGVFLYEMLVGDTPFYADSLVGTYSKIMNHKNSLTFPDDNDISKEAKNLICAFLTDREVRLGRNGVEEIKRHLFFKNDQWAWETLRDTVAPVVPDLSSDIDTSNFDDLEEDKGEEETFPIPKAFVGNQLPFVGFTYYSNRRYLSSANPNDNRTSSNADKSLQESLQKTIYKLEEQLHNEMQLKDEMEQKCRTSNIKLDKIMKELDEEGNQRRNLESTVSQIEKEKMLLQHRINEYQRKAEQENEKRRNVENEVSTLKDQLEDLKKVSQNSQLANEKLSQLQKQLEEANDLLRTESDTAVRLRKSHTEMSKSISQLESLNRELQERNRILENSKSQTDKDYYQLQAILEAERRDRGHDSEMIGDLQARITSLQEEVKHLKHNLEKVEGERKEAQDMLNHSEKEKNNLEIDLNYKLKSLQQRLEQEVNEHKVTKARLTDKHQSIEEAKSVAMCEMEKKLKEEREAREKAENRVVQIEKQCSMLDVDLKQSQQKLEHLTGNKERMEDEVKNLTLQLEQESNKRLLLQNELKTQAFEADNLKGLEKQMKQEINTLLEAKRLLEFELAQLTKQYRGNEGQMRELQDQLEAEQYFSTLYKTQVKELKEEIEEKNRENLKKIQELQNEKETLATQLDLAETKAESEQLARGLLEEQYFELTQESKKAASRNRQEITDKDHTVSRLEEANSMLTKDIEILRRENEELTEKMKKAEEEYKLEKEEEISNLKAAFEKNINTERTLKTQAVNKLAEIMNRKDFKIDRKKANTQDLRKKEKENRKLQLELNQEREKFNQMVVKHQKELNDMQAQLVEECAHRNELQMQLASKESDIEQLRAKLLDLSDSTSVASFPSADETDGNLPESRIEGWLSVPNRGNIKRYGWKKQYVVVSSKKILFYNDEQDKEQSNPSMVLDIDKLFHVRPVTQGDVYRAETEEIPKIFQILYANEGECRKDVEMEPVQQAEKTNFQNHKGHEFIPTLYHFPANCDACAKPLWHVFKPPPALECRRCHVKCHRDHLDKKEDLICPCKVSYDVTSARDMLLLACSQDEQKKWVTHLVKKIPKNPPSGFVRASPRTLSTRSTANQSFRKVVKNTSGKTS
T1 sequence (Q13464 1-477): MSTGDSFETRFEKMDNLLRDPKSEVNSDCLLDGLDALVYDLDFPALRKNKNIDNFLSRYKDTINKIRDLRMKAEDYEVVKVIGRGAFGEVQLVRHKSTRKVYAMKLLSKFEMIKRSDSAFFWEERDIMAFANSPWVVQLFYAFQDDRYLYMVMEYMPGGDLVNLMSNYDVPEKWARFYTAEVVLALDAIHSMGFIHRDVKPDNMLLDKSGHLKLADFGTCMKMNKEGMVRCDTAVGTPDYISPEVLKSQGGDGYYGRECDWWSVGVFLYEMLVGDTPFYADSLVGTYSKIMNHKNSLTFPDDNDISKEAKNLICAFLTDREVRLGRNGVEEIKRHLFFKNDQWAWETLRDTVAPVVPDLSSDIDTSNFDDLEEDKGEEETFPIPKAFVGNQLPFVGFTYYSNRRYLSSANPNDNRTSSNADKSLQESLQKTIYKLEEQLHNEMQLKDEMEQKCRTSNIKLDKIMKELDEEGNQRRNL
T4 sequence (O75116 whole entry): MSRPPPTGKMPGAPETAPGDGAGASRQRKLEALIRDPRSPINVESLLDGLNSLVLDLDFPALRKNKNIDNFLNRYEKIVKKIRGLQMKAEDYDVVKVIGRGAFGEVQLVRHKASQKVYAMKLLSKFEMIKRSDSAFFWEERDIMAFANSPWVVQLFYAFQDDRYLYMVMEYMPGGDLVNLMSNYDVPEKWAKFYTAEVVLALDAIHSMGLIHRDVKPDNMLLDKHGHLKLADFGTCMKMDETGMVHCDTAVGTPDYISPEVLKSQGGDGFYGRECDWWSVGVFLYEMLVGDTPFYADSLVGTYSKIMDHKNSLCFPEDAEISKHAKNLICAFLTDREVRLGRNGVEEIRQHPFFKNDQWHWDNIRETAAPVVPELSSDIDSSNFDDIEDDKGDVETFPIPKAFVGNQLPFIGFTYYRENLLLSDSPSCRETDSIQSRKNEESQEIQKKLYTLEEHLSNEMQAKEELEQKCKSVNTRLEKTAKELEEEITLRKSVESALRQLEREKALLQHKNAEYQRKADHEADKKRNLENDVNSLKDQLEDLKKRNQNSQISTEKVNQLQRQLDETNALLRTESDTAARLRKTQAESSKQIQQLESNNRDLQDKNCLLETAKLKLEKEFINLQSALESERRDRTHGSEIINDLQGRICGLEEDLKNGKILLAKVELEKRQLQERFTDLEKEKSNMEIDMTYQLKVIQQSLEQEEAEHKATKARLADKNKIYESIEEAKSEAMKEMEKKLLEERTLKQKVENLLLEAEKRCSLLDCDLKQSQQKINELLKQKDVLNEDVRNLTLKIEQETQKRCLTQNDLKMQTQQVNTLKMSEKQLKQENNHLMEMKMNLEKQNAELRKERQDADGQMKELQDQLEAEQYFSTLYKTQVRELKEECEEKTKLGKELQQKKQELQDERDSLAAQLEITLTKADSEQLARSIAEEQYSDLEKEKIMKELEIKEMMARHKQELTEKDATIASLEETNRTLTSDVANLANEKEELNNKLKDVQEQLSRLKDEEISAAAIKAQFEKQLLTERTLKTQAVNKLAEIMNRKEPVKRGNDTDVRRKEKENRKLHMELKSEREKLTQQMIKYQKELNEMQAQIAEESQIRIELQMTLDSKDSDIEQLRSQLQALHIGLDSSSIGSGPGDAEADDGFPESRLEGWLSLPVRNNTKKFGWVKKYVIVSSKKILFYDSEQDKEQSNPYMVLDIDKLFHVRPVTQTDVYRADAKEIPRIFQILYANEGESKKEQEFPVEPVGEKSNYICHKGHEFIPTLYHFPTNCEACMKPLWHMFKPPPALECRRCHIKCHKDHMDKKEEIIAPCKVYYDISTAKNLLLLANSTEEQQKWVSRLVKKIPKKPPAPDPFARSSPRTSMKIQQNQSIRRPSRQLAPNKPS

Consider `O=C1CCCN1c1cccc(-c2nsc(Nc3ccc4[nH]ncc4c3Cl)n2)c1` [IV-83], for which the IC50 in assay [1] was < 1 µM; in assay [2] it was < 1 µM; on ROCK1 (class symbols), 1 to 15 µM; at ROCK2, < 1 µM.
Regarding `Cn1cc(-c2nsc(Nc3ccc4[nH]ncc4c3Cl)n2)cc(NC(=O)c2ccccc2F)c1=O` [IV-50], the IC50 in assay [1] was > 30 µM; in assay [2], < 1 µM; on ROCK1 (numeric bound) it was > 10 µM; at ROCK2 it was < 1 µM.
Turning to `CC(C)(O)CNC(=O)c1cc(-c2nsc(Nc3ccc4[nH]ncc4c3Cl)n2)ccc1F` [IV-22], the 50% inhibitory concentration (IC50) in assay [1] is < 1 µM; in assay [2], < 1 µM; at ROCK1 (class symbols) it was 1 to 15 µM; at ROCK2, < 1 µM.
For `O=C(NC1CCOCC1)c1cc(-c2nsc(Nc3ccc4[nH]ncc4c3Cl)n2)ccc1F` [IV-47], the IC50 was < 1 µM in assay [1], < 1 µM in assay [2], 1 to 15 µM on ROCK1 (class symbols) and < 1 µM on ROCK2.
Consider `Cc1cc(C(=O)Nc2cc(-c3nsc(Nc4ccc5[nH]ncc5c4Cl)n3)ccn2)n(C)n1` [IV-58], for which the IC50 is > 30 µM in assay [1], < 1 µM in assay [2], > 10 µM on ROCK1 (numeric bound) and < 1 µM on ROCK2.
Consider `CC(C)N1CCN(c2cc(-c3nsc(Nc4ccc5[nH]ncc5c4Cl)n3)ccn2)C1=O` [IV-90], for which the IC50 in assay [1] was < 1 µM; in assay [2] it was < 1 µM; at ROCK1 (class symbols) it was 1 to 15 µM; at ROCK2 it was < 1 µM.
Regarding `Cc1cc(C(=O)Nc2cccc(-c3nsc(Nc4ccc5[nH]ncc5c4Cl)n3)c2)n[nH]1` [IV-76], the IC50 in assay [1] was < 1 µM; in assay [2], < 1 µM; on ROCK1 (numeric bound) it was > 10 µM; at ROCK2 it was < 1 µM.
In the case of `O=C(Nc1ccccn1)c1cccc(-c2nsc(Nc3ccc4[nH]ncc4c3Cl)n2)c1` [IV-66], the IC50 is < 1 µM in assay [1], < 1 µM in assay [2], 1 to 15 µM at ROCK1 (class symbols) and < 1 µM on ROCK2.
`O=C(NCC(F)(F)F)c1cccc(-c2nsc(Nc3ccc4[nH]ncc4c3Cl)n2)c1` [IV-81]: the IC50 was < 1 µM in assay [1], < 1 µM in assay [2], > 10 µM on ROCK1 (numeric bound) and < 1 µM at ROCK2.
Take `Cn1cc(C(=O)Nc2cccc(-c3nsc(Nc4ccc5[nH]ncc5c4Cl)n3)c2)cn1` [IV-78]: the IC50 in assay [1] was < 1 µM; in assay [2] it was < 1 µM; on ROCK1 (numeric bound) it was > 10 µM; at ROCK2, < 1 µM.
As for `Oc1ccn(-c2cccc(-c3nsc(Nc4ccc5[nH]ncc5c4Cl)n3)c2)n1` [IV-17], the IC50 in assay [1] is < 1 µM; in assay [2], < 1 µM; at ROCK1 (numeric bound) it was > 10 µM; at ROCK2 it was 1 to 15 µM.
In the case of `CNC(=O)c1cc(-c2nsc(Nc3ccc4[nH]ncc4c3Cl)n2)cn(C)c1=O` [IV-2], the IC50 in assay [1] was < 1 µM; in assay [2] it was < 1 µM; on ROCK1 (numeric bound), > 10 µM; at ROCK2 it was < 1 µM.
With `CNC(=O)c1cc(-c2nsc(Nc3ccc4[nH]ncc4c3Cl)n2)ccc1F` [IV-49], the IC50 is < 1 µM in assay [1], < 1 µM in assay [2], > 10 µM at ROCK1 (numeric bound) and < 1 µM at ROCK2.
On to `Cc1nc(C)c(C(=O)Nc2cccc(-c3nsc(Nc4ccc5[nH]ncc5c4Cl)n3)c2)o1` [IV-61], for which the IC50 is < 1 µM in assay [1], < 1 µM in assay [2], > 10 µM at ROCK1 (numeric bound) and < 1 µM at ROCK2.
Take `Cc1coc(-c2cccc(-c3nsc(Nc4ccc5[nH]ncc5c4F)n3)c2)n1` [IV-15]: the IC50 in assay [1] was < 1 µM; in assay [2], < 1 µM; on ROCK1 (numeric bound), > 10 µM; at ROCK2, < 1 µM.
As to `CC1(C)CN(c2cccc(-c3nsc(Nc4ccc5[nH]ncc5c4Br)n3)c2)C(=O)O1` [IV-35], the IC50 in assay [1] is < 1 µM; in assay [2], < 1 µM; on ROCK1 (class symbols) it was 1 to 15 µM; at ROCK2, < 1 µM.
